The record followed here is US20160185797A1, “ALKYNYL ALCOHOLS AND METHODS OF USE” (Genentech, Inc., priority 2013, published 2016).

Experiment [1] concerns the target T1, nuclear factor-kappa B (NF-kB)-inducing kinase (NIK) (Homo sapiens, UniProt Q99558).
T1 construct: made in house; host or cells: baculovirus-infected insect cells
Briefly: NIK enzyme inhibition assay (Transcreener ADP fluorescence polarization, NIK ADP-FP). In kind it is biochemical.
Procedure: NIK Enzyme Inhibition Assay:
The ability of the nuclear factor-kappa B (NF-kB)-inducing kinase (NIK) to catalyze the hydrolysis of adenosine-5′-triphosphate (ATP) was monitored using the Transcreener ADP (adenosine-5′-diphosphate) assay (BellBrook Labs). […] Reactions were quenched by the addition of 20 mM 2,2′,2″,2′″-(ethane-1,2-diyldinitrilo)tetraacetic acid and 0.01% Brij 35. The tracer bound to the antibody was displaced by the ADP generated during the NIK reaction, which causes a decrease in fluorescence polarization that was measured by laser excitation at 633 nm with a Fluorescence Correlation Spectroscopy Plus reader (Evotec AG). Equilibrium dissociation constant (Ki) values for NIK inhibitors are calculated from plots of activity vs. inhibitor concentration using Morrison's quadratic equation that accounts for the potential of tight binding, and by also applying the conversion factor that accounted for competitive inhibition and the concentration of substrate used in the assay relative to its Michaelis constant (Km).

For experiment [2], the system named is REL-A (p65) nuclear translocation in HeLa cells. Briefly: REL-A (p65) nuclear translocation assay in HeLa cells, TNF-α stimulated (classical NF-kB signaling), high content imaging. Conditions: Homo sapiens, HeLa, compound 4.5 h, then 10 ng/mL TNF-α for 30 minutes, read-out: REL-A HeLa Transloc Assay (IC50). The format is cell-based. The procedure:
(§1) Several assays were developed to profile the cellular activities of NIK inhibitors.
(§2) (2) A second set of cell assay are used to define the selectivity of NIK inhibitors toward inhibition of classical vs. non-classical NF-kB signaling and rely on quantification of the nuclear translocation of p52 (NF-kB2) and REL-A (p65) using high content cellular imaging. For the p52 (non-classical NF-kB signaling) nuclear translocation assay, HeLa cells are treated with different concentrations of compounds (0.2% DMSO final) in medium containing 10% fetal bovine serum and then stimulated with 100 ng/mL of an anti-lymphotoxin beta receptor antibody (R&D Systems) for 5 hours. In the REL-A nuclear translocation assay, HeLa cells are incubated with compounds (0.2% DMSO final) for 4.5 hours in medium containing 10% fetal bovine serum before stimulating them with 10 ng/mL tumor necrosis factor (TNF)-α (R&D Systems) for 30 minutes. Cells are fixed with 4% paraformaldehyde, permeabilized by adding 0.1% Triton X-100 in phosphate buffered saline, and then are incubated with either 2 ug/mL anti-p52 antibody (Millipore) or 400 ng/mL anti-REL-A (p65) antibody (Santa Cruz Biotechnology). Finally, the cells are incubated with an Alexa488-labeled secondary antibody (Invitrogen) and DRAQ5 DNA stain (Biostatus). Imaging is carried out using an Opera reader (Perkin Elmer) and data are analyzed with the aid of Acapella software (Perkin Elmer). The p52 or REL-Atranslocation into the nucleus is quantified by the ratio of the nuclear to cytoplasmic signal intensity. […] The compounds in listed in Table 1 have the corresponding inhibitory value (IC50 in micromolar) for NIK p52 Translocation Assay as set forth in Table 2.
(§3) The compounds in listed in Table 1 have the corresponding inhibitory values (IC50 in micromolar) for the Translocation Assays as set forth in Table 2.

The subject of experiment [3] is p52 (NF-kB2) nuclear translocation in HeLa cells. The experiment in a line: p52 (NF-kB2) nuclear translocation assay in HeLa cells, anti-lymphotoxin beta receptor antibody stimulated (non-classical NF-kB signaling), high content imaging. The following applies: Homo sapiens, 100 ng/mL anti-lymphotoxin beta receptor antibody for 5 hours, read-out: p52 HeLa Transloc Assay (IC50). In kind it is cell-based. The procedure: as §1, §2, §3

Some results are limits rather than exact numbers.

T1 sequence (Q99558 whole entry): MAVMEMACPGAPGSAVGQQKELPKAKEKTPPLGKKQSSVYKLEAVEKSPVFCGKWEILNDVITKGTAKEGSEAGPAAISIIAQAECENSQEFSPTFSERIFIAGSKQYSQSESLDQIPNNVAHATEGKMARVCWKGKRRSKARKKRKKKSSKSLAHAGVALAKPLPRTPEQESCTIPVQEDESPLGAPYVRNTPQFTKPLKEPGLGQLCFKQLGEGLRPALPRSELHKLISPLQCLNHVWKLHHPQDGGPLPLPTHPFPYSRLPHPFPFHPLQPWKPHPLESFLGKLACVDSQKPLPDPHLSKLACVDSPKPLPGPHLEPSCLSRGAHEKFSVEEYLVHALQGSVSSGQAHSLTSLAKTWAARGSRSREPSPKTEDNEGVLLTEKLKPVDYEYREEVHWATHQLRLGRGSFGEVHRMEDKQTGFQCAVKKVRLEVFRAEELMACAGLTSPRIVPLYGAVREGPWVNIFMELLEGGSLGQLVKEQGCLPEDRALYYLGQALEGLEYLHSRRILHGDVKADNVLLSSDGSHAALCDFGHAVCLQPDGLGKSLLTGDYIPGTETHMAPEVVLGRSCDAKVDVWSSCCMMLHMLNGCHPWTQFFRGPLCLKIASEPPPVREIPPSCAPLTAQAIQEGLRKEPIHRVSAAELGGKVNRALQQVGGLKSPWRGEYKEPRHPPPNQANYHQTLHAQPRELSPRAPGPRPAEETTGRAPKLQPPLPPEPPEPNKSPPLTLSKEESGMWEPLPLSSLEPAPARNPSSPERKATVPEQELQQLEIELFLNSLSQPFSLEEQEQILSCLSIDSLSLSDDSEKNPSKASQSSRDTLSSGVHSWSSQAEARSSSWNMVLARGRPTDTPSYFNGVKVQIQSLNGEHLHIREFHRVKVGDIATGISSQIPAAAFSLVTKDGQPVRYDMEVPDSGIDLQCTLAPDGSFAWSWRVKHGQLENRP

For `CN1CCC(O)(C#Cc2cccc(-c3nc(C(N)=O)cn4ccnc34)c2)C1=O` (stereo in doubt) [Example 45, 8-(3-[2-[(3S)-3-hydroxy-1-methyl-2-oxopyrrolidin-3-yl]ethynyl]phenyl)imidazo [1,2-a]pyrazine-6-carboxamide], the affinity in experiment [1] corresponds to a Ki of 0.39 nM. Further, the concentration for half-maximal inhibition (IC50) (in general, the concentration that inhibits the measured activity by half) in experiment [2] is above 20000 nM; in experiment [3] it was 122 nM.

For the molecule `CN1CC[C@@](O)(C#Cc2cccc(-c3cccc(C(N)=O)n3)c2)C1=O` [Example 1, 6-[3-[2-[(3R)-3-hydroxy-1-methyl-2-oxo-pyrrolidin-3-yl]ethynyl]phenyl]pyridine-2-carboxamide], the IC50 in experiment [2] is above 20000 nM; in experiment [3] it was 93.2 nM.

In the case of `CN1CC[C@@](O)(C#Cc2cccc(-c3ccnc(C(N)=O)n3)c2)C1=O` [Example 3, 4-[3-[2-[(3R)-3-hydroxy-1-methyl-2-oxo-pyrrolidin-3-yl]ethynyl]phenyl]pyrimidine-2-carboxamide], the IC50 in experiment [2] was above 20000 nM; in experiment [3] it was 674 nM.

Consider `COc1cc(C(N)=O)nc(-c2cccc(C#C[C@]3(O)CCN(C)C3=O)c2)n1` [Example 29, 2-[3-[2-[(3R)-3-hydroxy-1-methyl-2-oxo-pyrrolidin-3-yl]ethynyl]phenyl]-6-methoxy-pyrimidine-4-carboxamide], for which the figures for the IC50 in experiment [2] and in experiment [3] were above 20000 nM and 46.6 nM, respectively.

For `CN1CC[C@@](O)(C#Cc2cccc(-c3cc4ccccc4c(C(N)=O)n3)c2)C1=O` [Example 40, 3-[3-[2-[(3R)-3-hydroxy-1-methyl-2-oxo-pyrrolidin-3-yl]ethynyl]phenyl] isoquinoline-1-carboxamide], the IC50 in experiment [2] was above 8000 nM; in experiment [3], 7.8 nM.

For `CN1CC[C@@](O)(C#Cc2cccc(-c3ccc(N)c(C(N)=O)n3)c2)C1=O` [Example 63, 3-amino-6-[3-[2-[(3R)-3-hydroxy-1-methyl-2-oxo-pyrrolidin-3-yl]ethynyl]phenyl]pyridine-2-carboxamide], the IC50 was at least 20000 nM in experiment [2] and 10.7 nM in experiment [3].

With `COc1cc(C(N)=O)nc(-c2cccc(C#C[C@]3(O)CCN(C)C3=O)c2)c1` [Example 90, 6-[3-[2-[(3R)-3-hydroxy-1-methyl-2-oxo-pyrrolidin-3-yl]ethynyl]phenyl]-4-methoxy-pyridine-2-carboxamide], the values for the IC50 in experiment [2] and in experiment [3] were at least 20000 nM and 16.8 nM, respectively.

For `CN1CC[C@@](O)(C#Cc2cccc(-c3cncc(C(N)=O)n3)c2)C1=O` [Example 154, 6-[3-[2-[(3R)-3-hydroxy-1-methyl-2-oxo-pyrrolidin-3-yl]ethynyl]phenyl]pyrazine-2-carboxamide], the IC50 in experiment [2] was above 2000 nM; in experiment [3], 400 nM.

With `CN1CC[C@@](O)(C#Cc2cccc(-c3cc(-n4ccnc4)cc(C(N)=O)n3)c2)C1=O` [Example 182, 6-[3-[2-[(3R)-3-hydroxy-l-methyl-2-oxo-pyrrolidin-3-yl]ethynyl]phenyl]-4-imidazol-1-yl-pyridine-2-carboxamide], the Ki – broadly, the equilibrium dissociation constant of an inhibitor or competing ligand from its target – in experiment [1] was found to be 0.17 nM.

Regarding `COCc1cc(-c2cccc(C#C[C@]3(O)CCN(C)C3=O)c2)nc(C(N)=O)n1` [Example 183, 4-[3-[2-[(3R)-3-hydroxy-l-methyl-2-oxo-pyrrolidin-3-yl]ethynyl]phenyl]-6-(methoxymethyl)pyrimidine-2-carboxamide], in experiment [1], the inhibitory constant (Ki) was found to be 0.49 nM.

In experiment [1], `CN1CC[C@@](O)(C#Cc2cc3c(c(-c4nccc(C(N)=O)n4)c2)CCN3)C1=O` [Example 184, 2-[6-[2-[(3R)-3-hydroxy-1-methyl-2-oxo-pyrrolidin-3-yl]ethynyl]indolin-4-yl] pyrimidine-4-carboxamide] had a Ki of 0.14 nM.

`COc1cc(C(N)=O)nc(-c2cccc(C#C[C@]3(O)CCN(C)C3=O)c2)c1F` [Example 185, 5-fluoro-6-[3-[2-[(3R)-3-hydroxy-1-methyl-2-oxo-pyrrolidin-3-yl]ethynyl]phenyl]-4-methoxy-pyridine-2-carboxamide] registered a Ki in experiment [1] of 0.5 nM.

In experiment [1], `CN1CC[C@@](O)(C#Cc2cccc(-c3nc(C(N)=O)cc4c3OCC4)c2)C1=O` [Example 186, 7-[3-[2-[(3R)-3-hydroxy-1-methyl-2-oxo-pyrrolidin-3-yl]ethynyl]phenyl]-2,3-dihydrofuro[1,3-c]pyridine-5-carboxamide] showed a Ki of 0.14 nM.

In turn, `CN1CC[C@@](O)(C#Cc2cccc(-c3ccc(C(F)F)c(C(N)=O)n3)c2)C1=O` [Example 187, 3-(difluoromethyl)-6-[3-[2-[(3R)-3-hydroxy-1-methyl-2-oxo-pyrrolidin-3-yl]ethynyl]phenyl]pyridine-2-carboxamide] came in with a Ki in experiment [1] of 0.06 nM.

As for `CN1CC[C@@](O)(C#Cc2cccc(-c3nc(C(N)=O)ccc3C(F)F)c2)C1=O` [Example 188, 5-(difluoromethyl)-6-[3[2-[(3R)-3-hydroxy-1-methyl-2-oxo-pyrrolidin-3-yl]ethynyl]phenyl]pyridine-2-carboxamide], affinity in experiment [1] was put at a Ki of 9.53 nM.

In experiment [1], `CN1CC[C@@](O)(C#Cc2cccc(-c3cc(OCC(F)(F)F)cc(C(N)=O)n3)c2)C1=O` [Example 189, 6-[3-[2-[(3R)-3-hydroxy-1-methyl-2-oxo-pyrrolidin-3-yl]ethynyl]phenyl]-4(2,2,2-trifluoroethoxy)pyridine-2-carboxamide] showed a Ki of 0.15 nM.

In turn, `CN1CC[C@@](O)(C#Cc2cccc(-c3cc(-n4cc(F)cn4)cc(C(N)=O)n3)c2)C1=O` [Example 190, 4-(4-fluoropyrazol-1-yl)-6-[3-[2-[(3R)-3-hydroxy-1-methyl-2-oxo-pyrrolidin-3-yl]ethynyl]phenyl]pyridine-2-carboxamide] displayed a Ki in experiment [1] below 0.05 nM.

In experiment [1], `COc1cc(C(N)=O)nc(-c2cc(C#C[C@]3(O)CCN(C)C3=O)c(F)cc2F)c1` [Example 191, 6[2,4-difluoro-5-[2-[(3R)-3-hydroxy-l-methy1-2-oxo-pyrrolidin-3-yl]ethynyl]phenyl]-4-methoxy-pyridine-2-carboxamide] showed a Ki below 0.05 nM.

In turn, `CN1CC[C@@](O)(C#Cc2cccc(-c3nc(C(N)=O)c4c(n3)N(C)CC4)c2)C1=O` [Example 192, 2-[3-[2-[(3R)-3-hydroxy-1-methyl-2-oxo-pyrrolidin-3-yl]ethynyl]phenyl]-7-methyl-5,6-dihydropyrrolo[2,3-d] pyrimidine-4-carboxamide] yielded a Ki in experiment [1] of 0.4 nM.

In experiment [1], `CN1CC[C@@](O)(C#Cc2cccc(-c3nc(C(N)=O)c4cnn(C5CC5)c4n3)c2)C1=O` [Example 193, 1-cyclopropyl-6-[3-[2-[(3R)-3-hydroxy-1-methyl-2-oxo-pyrrolidin-3-yl]ethynyl]phenyl]pyrazolo[3,4-d] pyrimidine-4-carboxamide] came in with a Ki below 0.1 nM.

With `CN1CC[C@@](O)(C#Cc2cc(F)c(F)c(-c3ccc(N)c(C(N)=O)n3)c2)C1=O` [Example 194, 3-amino-6-[2,3-difluoro-5-[2-[(3R)-3-hydroxy-l-methyl-2-oxo-pyrrolidin-3-yl]ethynyl]phenyl]pyridine-2-carboxamide], the Ki in experiment [1] is below 0.05 nM.

In experiment [1], `Cc1cc(-c2cccc(C#C[C@]3(O)CCN(C)C3=O)c2)nc(C(N)=O)c1O` [Example 195, 3-hydroxy-6-[3-[2-[(3R)-3-hydroxy-1-methyl-2-oxo-pyrrolidin-3-yl]ethynyl]phenyl]-4-methyl-pyridine-2-carboxamide] showed a Ki below 0.05 nM.

Consider `CN1CC[C@@](O)(C#Cc2cc(-c3cnc(N)c(C(N)=O)n3)c3ncsc3c2)C1=O` [Example 196, 3-amino-6-[6-[2-[(3R)-3-hydroxy-1-methyl-2-oxo-pyrrolidin-3-yl]ethynyl]-1,3-benzothiazol-4-yl]pyrazine-2-carboxamide], for which, in experiment [1], affinity was put at a Ki of 1 nM.

`CN1CC[C@@](O)(C#Cc2cccc(-c3cc(CO)cc(C(N)=O)n3)c2)C1=O` [Example 197, 4-(hydroxymethyl)-6-[3-[2-[(3R)-3-hydroxy-1-methyl-2-oxo-pyrrolidin-3-yl]ethynyl]phenyl]pyridine-2-carboxamide] displayed an inhibitory constant (Ki) in experiment [1] of 0.8 nM.

In the case of `COCc1cc(C(N)=O)nc(-c2cccc(C#C[C@]3(O)CCN(C)C3=O)c2)c1` [Example 198, 6-[3-[2-[(3R)-3-hydroxy-1-methyl-2-oxo-pyrrolidin-3-yl]ethynyl]phenyl]-4-(methoxymethyl)pyridine-2-carboxamide], the affinity in experiment [1], expressed as Ki, was 0.5 nM.

The molecule `CCOc1cc(C(N)=O)nc(-c2cccc(C#C[C@]3(O)CCN(C)C3=O)c2)c1` [Example 199] had a Ki in experiment [1] of 0.4 nM.

`CN1CC[C@@](O)(C#Cc2cccc(-c3cc(N4CC(F)(F)C4)cc(C(N)=O)n3)c2)C1=O` [Example 200, 4-(3,3-difluoroazetidin-1-yl)-6-[3-[2-[(3R)-3-hydroxy-1-methyl-2-oxo-pyrrolidin-3-yl]ethynyl]phenyl]pyridine-2-carboxamide] gave a Ki in experiment [1] below 0.05 nM.
